Assay results: patent US10287255B2, “Compounds as histone deacetylase 6 inhibitors and pharmaceutical compositions comprising the same” (CHONG KUN DANG PHARMACEUTICAL CORP., priority 2014, dated 2019)

Assays:
human recombinant HDAC1 = molecular target: T1, human recombinant HDAC1 (Homo sapiens, UniProt Q13547); experiment: HDAC1 enzyme activity inhibition assay (in vitro, fluorimetric); format: biochemical; conditions: human recombinant HDAC1, fluorimetric kit, 30° C. 60 minutes
T1 construct: purchased Enzo Life Science BML-SE456
T1 sequence (Q13547 whole entry): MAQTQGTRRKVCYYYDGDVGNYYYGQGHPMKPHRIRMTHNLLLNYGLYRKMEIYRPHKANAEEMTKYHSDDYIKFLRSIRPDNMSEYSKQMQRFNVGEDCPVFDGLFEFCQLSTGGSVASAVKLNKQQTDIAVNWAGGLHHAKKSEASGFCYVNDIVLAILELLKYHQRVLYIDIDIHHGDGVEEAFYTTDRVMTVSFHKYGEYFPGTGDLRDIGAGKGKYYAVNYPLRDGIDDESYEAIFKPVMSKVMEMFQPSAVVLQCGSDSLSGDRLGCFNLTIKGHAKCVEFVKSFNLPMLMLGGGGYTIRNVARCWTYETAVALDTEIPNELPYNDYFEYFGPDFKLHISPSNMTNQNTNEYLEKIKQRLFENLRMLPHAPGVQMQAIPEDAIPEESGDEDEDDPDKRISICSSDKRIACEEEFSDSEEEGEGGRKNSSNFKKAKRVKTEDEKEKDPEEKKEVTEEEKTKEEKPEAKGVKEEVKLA
Outline: (§1)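 Human recombinant enzyme (0.3 μg for HDAC1) reacted with 10 μM Fluor de Lys-SIRT1 substrate and 5-fold compound dilutions at 30 °C for 60 min, then developer for 30 min. Fluorescence read at Ex 360/Em 460; IC50 calculated. HDAC6 run by the same protocol.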

human recombinant HDAC6 = molecular target: T2, human recombinant HDAC6 (Homo sapiens, UniProt Q9UBN7); experiment: HDAC6 enzyme activity inhibition assay (in vitro, fluorimetric); format: biochemical; conditions: for HDAC6 selectivity (fold): HDAC6 selectivity over HDAC1; for IC50: human recombinant HDAC6, fluorimetric kit, same protocol as HDAC1
T2 construct: purchased Calbiochem 382180
T2 sequence (Q9UBN7 1-1215): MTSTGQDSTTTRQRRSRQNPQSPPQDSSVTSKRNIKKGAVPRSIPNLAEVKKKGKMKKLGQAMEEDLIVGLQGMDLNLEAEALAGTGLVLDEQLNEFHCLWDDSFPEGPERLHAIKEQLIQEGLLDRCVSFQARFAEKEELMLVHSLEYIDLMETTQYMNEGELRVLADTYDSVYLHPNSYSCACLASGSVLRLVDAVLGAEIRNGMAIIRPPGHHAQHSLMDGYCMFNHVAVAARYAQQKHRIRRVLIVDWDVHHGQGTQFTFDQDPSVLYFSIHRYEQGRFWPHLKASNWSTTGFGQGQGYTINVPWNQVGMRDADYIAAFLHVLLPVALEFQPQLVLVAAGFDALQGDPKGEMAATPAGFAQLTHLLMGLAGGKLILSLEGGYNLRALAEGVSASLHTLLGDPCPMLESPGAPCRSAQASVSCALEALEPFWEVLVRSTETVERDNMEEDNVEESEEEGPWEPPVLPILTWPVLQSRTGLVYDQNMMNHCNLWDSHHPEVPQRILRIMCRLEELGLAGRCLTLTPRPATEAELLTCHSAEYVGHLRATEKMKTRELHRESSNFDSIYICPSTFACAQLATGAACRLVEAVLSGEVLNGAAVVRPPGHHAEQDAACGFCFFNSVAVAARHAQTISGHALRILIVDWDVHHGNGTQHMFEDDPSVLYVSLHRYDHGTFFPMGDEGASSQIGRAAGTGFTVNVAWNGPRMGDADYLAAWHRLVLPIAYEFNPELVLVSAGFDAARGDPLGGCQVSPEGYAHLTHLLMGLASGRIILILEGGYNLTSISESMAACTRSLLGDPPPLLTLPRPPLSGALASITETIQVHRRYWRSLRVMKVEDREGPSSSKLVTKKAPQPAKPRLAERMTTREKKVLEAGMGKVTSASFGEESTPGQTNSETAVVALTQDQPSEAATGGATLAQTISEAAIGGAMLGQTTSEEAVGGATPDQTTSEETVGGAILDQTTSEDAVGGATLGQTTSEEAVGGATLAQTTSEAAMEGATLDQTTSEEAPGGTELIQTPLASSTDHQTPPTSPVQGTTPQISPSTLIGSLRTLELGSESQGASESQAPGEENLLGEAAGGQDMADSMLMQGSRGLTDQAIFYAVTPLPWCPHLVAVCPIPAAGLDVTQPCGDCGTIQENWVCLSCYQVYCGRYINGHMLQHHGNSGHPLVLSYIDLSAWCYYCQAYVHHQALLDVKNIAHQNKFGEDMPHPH
Outline: as §1

SMILES | IC50 (human recombinant HDAC1) [µM] | HDAC6 selectivity (fold) (human recombinant HDAC6) | IC50 (human recombinant HDAC6) [µM]
C[C@@H]1CN(Cc2ccc(C(=O)NO)cc2)C[C@H](C)N1C(=O)Cc1cccc(C(F)(F)F)c1 [Compound 223, 4-(((3R,5S)-3,5-dimethyl-4-(2-(3-(trifluoromethyl)phenyl)acetyl)piperazin-1-yl)methyl)-N-hydroxybenzamide] | 0.9 | 8 | 0.118
C[C@@H]1CN(Cc2ccc(C(=O)NO)cc2)C[C@H](C)N1C(=O)Cc1cccc(Cl)c1 [Compound 224, 4-(((3R,5S)-4-(2-(3-chlorophenyl)acetyl)-3,5-dimethylpiperazin-1-yl)methyl)-N-hydroxybenzamide] | 1.7 | 14 | 0.12
C[C@@H]1CN(Cc2ccc(C(=O)NO)cc2)C[C@H](C)N1Cc1cccc(F)c1 [Compound 225, 4-(((3R,5S)-4-(3-fluorobenzyl)-3,5-dimethylpiperazin-1-yl)methyl)-N-hydroxybenzamide] | 1.9 | 36 | 0.052
COc1cccc(CNC(=O)N2C[C@@H](C)N(Cc3ccc(C(=O)NO)cc3)[C@@H](C)C2)c1 [Compound 230, (3R,5S)-4-(4-(hydroxycarbamoyl)benzyl)-N-(3-methoxybenzyl)-3,5-dimethylpiperazine-1-carboxamide] | 2.4 | 3 | 0.687
C[C@@H]1CN(C(=O)NCc2cccc(F)c2)C[C@H](C)N1Cc1ccc(C(=O)NO)cc1 [Compound 231, (3R,5S)-N-(3-fluorobenzyl)-4-(4-(hydroxycarbamoyl)benzyl)-3,5-dimethylpiperazine-1-carboxamide] | 1.5 | 2 | 0.763
C[C@@H]1CN(C(=O)Cc2cccc(Cl)c2)C[C@H](C)N1Cc1ccc(C(=O)NO)cc1 [Compound 233, 4-(((2S,6R)-4-(2-(3-chlorophenyl)acetyl)-2,6-dimethylpiperazin-1-yl)methyl)-N-hydroxybenzamide] | 16.9 | 11 | 1.48
C[C@@H]1CN(Cc2ccc(C(=O)NO)cc2)C[C@H](C)N1C(=O)Cc1cccc(-c2ccccc2)c1 [Compound 234, 4-(((3R,5S)-4-(2-([1,1′-biphenyl]-3-yl)acetyl)-3,5-dimethylpiperazin-1-yl)methyl)-N-hydroxybenzamide] | 8.9 | 17 | 0.512

More lines, now with the values ahead:

IC50 (human recombinant HDAC1) [µM] | HDAC6 selectivity (fold) (human recombinant HDAC6) | IC50 (human recombinant HDAC6) [µM] | SMILES
7.9 | 28 | 0.286 | C[C@@H]1CN(Cc2ccc(C(=O)NO)cc2)C[C@H](C)N1C(=O)NCc1cccc(F)c1 [Compound 232, (2S,6R)-N-(3-fluorobenzyl)-4-(4-(hydroxycarbamoyl)benzyl)-2,6-dimethylpiperazine-1-carboxamide]
2.4 | 24 | 0.098 | C[C@@H]1CN(Cc2ccc(C(=O)NO)cc2)C[C@H](C)N1C(=O)c1cccc(-c2ccco2)c1 [Compound 242, 4-(((3R,5S)-4-(3-(furan-2-yl)benzoyl)-3,5-dimethylpiperazin-1-yl)methyl)-N-hydroxybenzamide]
3 | 40 | 0.074 | C[C@@H]1CN(Cc2ccc(C(=O)NO)cc2)C[C@H](C)N1C(=O)c1cccc(-c2ccoc2)c1 [Compound 243, 4-(((3R,5S)-4-(3-(furan-3-yl)benzoyl)-3,5-dimethylpiperazin-1-yl)methyl)-N-hydroxybenzamide]
3.4 | 35 | 0.097 | C[C@@H]1CN(Cc2ccc(C(=O)NO)cc2)C[C@H](C)N1C(=O)c1cccc(C2=CCOCC2)c1 [Compound 244, 4-(((3R,5S)-4-(3-(3,6-dihydro-2H-pyran-4-yl)benzoyl)-3,5-dimethylpiperazin-1-yl)methyl)-N-hydroxybenzamide]
